For one compound, Caspase9 concentration results are on record in paper PMC11582173, “Synthesis, cytotoxicity, anti-inflammatory, anti-metastatic and anti-oxidant activities of novel chalcones incorporating 2-phenoxy-N-arylacetamide and thiophene moieties: induction of apoptosis in MCF7 and HEP2 cells” (Naunyn-Schmiedeberg's Archives of Pharmacology, 2024).

Several values for one entry are separate records, joined by “and”; a condition that tells them apart may be missing. Equal values may be shown once.

For this test, the system named is Caspase 9. The test is described as follows: ELISA, Caspase 9 concentration. It counts as cell-based, human. As for the experimental part:
The concentrations of matrix metalloproteinase-2 (MMP2), matrix metalloproteinase-9 (MMP9), Bcl2, BAX, P53, Malondialdehyde (MDA), Glutathione (GSH), caspase 8, caspase 9 and IL-6 were measured quantitatively in 5c treated MCF7 and HEP2 cells using ELISA (Enzyme-Linked Immunosorbent Assay) (Table 4). Gelatinases are a collective word for MMP-2 and MMP-9, where MMP-2 is gelatinase-A and MMP-9 is gelatinase-B. Solid tumor invasion, metastasis, and angiogenesis have long been linked to gelatinases (Das et al. [2021]). […] Bcl2 is a crucial protein that targets apoptosis inhibition. It is regarded as a predictive biomarker or therapeutic target in the diagnosis of cancer due to its broad expression in a variety of cancers (Porter et al. [2009]). […] The pro-apoptotic protein BAX permeabilizes the mitochondrial outer membrane by changing from a cytosolic monomer to a hazardous oligomer triggering the apoptosis process (Fulda and Debatin [2006]). […] P53 transcription factor performs an essential tumor suppressor role by coordinating a wide range of physiological responses, including DNA repair, cell cycle arrest, cellular senescence, cell death, cell differentiation, and metabolism (Liebl and Hofmann [2021]). It was activated in MCF7 and HEP2-treated cells with values (4.28 and 3.109 ng/mL), respectively, compared to their controls (3.44 and 2.06 ng/mL). […]
For orientation: ELISA stands for enzyme-linked immunosorbent assay.

`COc1ccc(NC(=O)COc2ccc(C=CC(=O)c3cccs3)cc2)cc1` [Compound 5c, N-(4-Methoxyphenyl)-2-(4-(3-oxo-3-(thiophen-2-yl)prop-1-en-1-yl)phenoxy)acetamide]: the Caspase9 concentration (5c treated HEP2 cells, untreated 3.70±0.18) is 27.54 ng/mL and 27.54 ± 0.68 ng/mL; the Caspase9 concentration (5c treated MCF7 cells, untreated 3.66±0.49) is 28.03 ng/mL and 28.03 ± 0.49 ng/mL.
